Data reported in the OligoGym collection.
HELM strings list units from the 5' end as sugar, base in round brackets, then linkage (d deoxyribose, r ribose, m 2'-O-methyl, p phosphodiester). Strings are as the collection lists them; they lack the last nucleoside at the 3' end of the tested compound. [moe] = 2'-O-(2-methoxyethyl) (MOE); [sp] = phosphorothioate linkage; [m5C] = 5-methylcytosine

Each substance was assayed against HTT (assay: mouse, dose not given). Conditions: ASO.

Substance	3 h FOB score [score 0-7]
RNA1{[moe](G)[sp].[moe](G)p.[moe](T)p.[moe](T)p.[moe](A)[sp].d(G)[sp].d(T)[sp].d(T)[sp].d(T)[sp].d(T)[sp].d([m5C])[sp].d([m5C])[sp].d(T)[sp].d(T)[sp].d(T)[sp].[moe](T)p.[moe](A)p.[moe](T)[sp].[moe](A)}$$$$ (last 3' nucleoside missing)	1
RNA1{[moe]([m5C])[sp].[moe](A)p.[moe]([m5C])p.[moe](A)p.[moe](G)p.[moe]([m5C])p.d(T)[sp].d(T)[sp].d(T)[sp].d(T)[sp].d(A)[sp].d(T)[sp].d(T)[sp].d(T)[sp].d([m5C])[sp].d([m5C])[sp].[moe](A)p.[moe](T)[sp].[moe](A)}$$$$ (last 3' nucleoside missing)	0
RNA1{[moe](G)[sp].[moe]([m5C])p.[moe](T)p.[moe](T)p.[moe](T)[sp].d(G)[sp].d(A)[sp].d(T)[sp].d(T)[sp].d(T)[sp].d(T)[sp].d(T)[sp].d(A)[sp].d([m5C])[sp].d([m5C])[sp].[moe](A)p.[moe](G)p.[moe](T)[sp].[moe](T)}$$$$ (last 3' nucleoside missing)	1
